Experimental findings from patent EP2316926B1, “Enantioselective production of alpha-hydroxy carbonyl compounds” (priority 2009, dated 2011) are described below.

Values joined by “and” are separate entries in the source; they are usually repeats but may differ in a detail not shown here. Identical values can stand only once.

The target in data set [1] is T1, Gox0644 (Gluconobacter oxydans, UniProt Q5FT75). Nature of the data set: NADPH-dependent α-ketocarbonyl reductase activity assay (rate of decrease of NADPH at 340 nm). It counts as biochemical. Conditions: for Gox0644 U/mg*: Table 3, 10 mM substrate, 40 mM K-phosphate buffer pH 7.0, 0.05 mM NAD(P)H, 30 °C, U/mg = µmol x min^-1 x mg protein^-1. As for the experimental part:
Reactions were induced by addition of enzyme or substrate. One unit was defined as the amount of enzyme activity catalyzing the conversion of 1 µmol of pyridine nucleotide per min at 30 °C. NMR Analysis of Biotransformation Products: Biotransformations were extracted with equal volumes of CDCl3. and ^13C NMR spectra were recorded on a Bruker Avance 300 DPX spectrometer operating at 300 MHz for ^1H NMR and at 75 MHz for ^13C NMR, respectively.
Reactions were induced by addition of enzyme or substrate. One unit of activity was defined as the amount of enzyme activity catalyzing the conversion of 1 µmol of pyridine nucleotide per min at 30 °C.
The standard reaction mixture (1 ml) for the reduction reactions of substrates contained 10 mM substrate, 40 mM potassium phosphate buffer (K-phosphate buffer) pH 7.0, 0.05 mM NAD(P)H, and the enzyme unless otherwise noted. Reactions were induced by addition of enzyme or substrate. One unit of activity was defined as the amount of enzyme activity catalyzing the conversion of 1 µmol of pyridine nucleotide per min at 30 °C. […] Table 3: Enzymatic activities with α-diketones, α-ketoaldehydes and α-ketoesters

Data set [2] has as its target T2, Gox1615 (Gluconobacter oxydans, UniProt Q5FQJ0).
T2 sequence (Q5FQJ0 1-332): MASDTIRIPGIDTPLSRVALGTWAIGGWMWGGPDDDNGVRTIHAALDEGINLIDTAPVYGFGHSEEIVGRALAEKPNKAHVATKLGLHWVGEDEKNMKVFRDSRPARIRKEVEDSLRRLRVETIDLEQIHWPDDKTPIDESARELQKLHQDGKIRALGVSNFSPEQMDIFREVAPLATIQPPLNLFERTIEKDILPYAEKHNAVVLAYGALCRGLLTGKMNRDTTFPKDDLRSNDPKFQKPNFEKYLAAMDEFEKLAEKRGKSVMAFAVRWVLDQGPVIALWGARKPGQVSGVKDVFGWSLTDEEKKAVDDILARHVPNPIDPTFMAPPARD
The data set is described as above. The settings on record: for Gox1615 U/mg*: Table 3, 10 mM substrate, 40 mM K-phosphate buffer pH 7.0, 0.05 mM NAD(P)H, 30 °C, U/mg = µmol x min^-1 x mg protein^-1; for Specific Activity (U/mg)*: Table 5, cofactor NADPH, U/mg = µmol/mg·min. The class given is biochemical. As for the experimental part:
(§1) Measurement of enzyme activity: NADPH-dependent α-ketocarbonyl reductases were assayed by a routine method used for NAD(P)-linked enzymes by recording the rate of decrease of NADPH at 340 nm (ε = 6.22 mM^-1 x cm^-1)) with substrates at 30 °C. The reaction mixture (1 ml) for reduction of α-ketocarbonyl substrates contained 10 mM substrate, 40 mM potassium phosphate buffer pH 7.0, 0.025 mM NAD(P)H and the enzyme. Reactions were induced by addition of enzyme or substrate. One unit was defined as the amount of enzyme activity catalyzing the conversion of 1 µmol of pyridine nucleotide per min at 30 °C. NMR Analysis of Biotransformation Products: Biotransformations were extracted with equal volumes of CDCl3. and ^13C NMR spectra were recorded on a Bruker Avance 300 DPX spectrometer operating at 300 MHz for ^1H NMR and at 75 MHz for ^13C NMR, respectively. Spectra were processed using Bruker TonSpin 1.3 for Windows software and calibrated to the residual solvent peak of CDCl3 (δH = 7.26 / δC = 77.0).
NADPH-dependent α-ketocarbonyl reductases were assayed by a routine method used for NAD(P)-linked enzymes by recording the rate of decrease of NADPH at 340 nm (ε = 6.22 mM^-1.cm^-1) with substrates at 30 °C. The reaction mixture (1 ml) for reduction of α-ketocarbonyl substrates contained 10 mM substrate, 40 mM potassium phosphate buffer pH 7.0, 0.025 mM NADPH, and the enzyme. Reactions were induced by addition of enzyme or substrate. One unit of activity was defined as the amount of enzyme activity catalyzing the conversion of 1 µmol of pyridine nucleotide per min at 30 °C.
Purified NAD(P)-dependent oxidoreductases were assayed at 30 °C by a routine method used for NAD(P)-linked enzymes by recording the rate of decrease of NAD(P)H at 340 nm (ε = 6.22 mM^-1˙cm^-1) with substrates capable of reduction reactions. The standard reaction mixture (1 ml) for the reduction reactions of substrates contained 10 mM substrate, 40 mM potassium phosphate buffer (K-phosphate buffer) pH 7.0, 0.05 mM NAD(P)H, and the enzyme unless otherwise noted. Reactions were induced by addition of enzyme or substrate. One unit of activity was defined as the amount of enzyme activity catalyzing the conversion of 1 µmol of pyridine nucleotide per min at 30 °C. Measurement of the protein content was performed by the method of Bradford (Bradford M.M., Anal. Biochem. 72:248-254 (1976)). Table 3: Enzymatic activities with α-diketones, α-ketoaldehydes and α-ketoesters

The target in data set [3] is T1, Gox0644. Briefly: Coupled-enzyme biotransformation with cofactor regeneration, product determined by NMR (regio- and stereoselectivity). It counts as biochemical. As for the experimental part:
as §1
Determination of the absolute configuration of the biotransformation product 2-hydroxy-pentan-3-one using chiral NMR shift solvents: Chiral NMR shift reagent (R,R)- and (S,S)-bis-α-methylbenzylamine-para-methyl (BMBA-p-Me) was prepared with small modifications according to the method reported by Kobayashi, Y et al., Tetrahedron Lett. 44: 7489-7491 (2003). In brief, the method of Marshall, J.A. and Mikowski, A. M., Org. Lett. 8:4375-4378 (2006) was used to synthesize 1,3-dibromo-2-methylpropane from 1,3-dihydroxy-2-methylpropane. Diisopropylethylamine (25.5 g), triphenylphosphine (20.1 g) and CBr4 (25.5 g) were sequentially added to a stirring solution of […] in 100 ml CH2Cl2 at 0 °C. The reaction was stirred for 3-4 h at 0 °C and concentrated under reduced pressure to give a green-brown oil. The oil was dissolved in diethyl ether and water (100 ml each) and the aqueous layer was extracted three times with diethyl ether. The organic extracts were combined and washed with water and brine, and dried over MgSO4. The reaction was concentrated under reduced pressure and applied to flash chromatography on silica 60 (230-400 mesh, 100% cyclohexane). Fractions containing the 1,3-dibromo-2-methylpropane product were combined (as judged by Si-TLC [100% cyclohexene]) and concentrated under reduced pressure resulting in a brown-yellow oil. The dibromopropane oil was used for the synthesis of (R,R)- and (S,S)-BMBA-p-Me as described by (Kobayashi, Y. et al., Org. Lett. 4(3):411-414 (2002). The crude oil was distilled by Kugelrohr at 240 °C to give crude BMPA-p-Me (yellow oil). BMBA-p-Me was purified by HPLC using a C18 column (Waters Xterra, 250 x 4.6 mm) at a flow rate of 0.8 ml min^-1 and a 40 min linear gradient of 50-100 % MeOH at ambient temperature. Fractions were concentrated under reduced pressure and BMBA-p-Me was identified by ^1H-NMR (colorless hygroscopic oil).
Approximately 7.5 mg of the extracted product 2-hydroxy-pentan-3-one was added to 15 mg (R,R)- or (S,S)-BMBA-p-Me (dissolved in 200-300 µl CDCl3) and analyzed by ^13C NMR with the readout adjusted to 0.001 ppm/point (sw = 239 ppm, td = 512k) (Fiorentino, A. et al., Tetrahedron., 62:8952-8958 (2006)). The absolute configuration was determined based on the sign of ΔδRR-SS (δ(R,R)-BMBA-p-Me - δ(S,S)-BMBA-p-Me) for the α-carbons adjacent to the hydroxymethine unit as formulated in the following model shown in Scheme 3 (valid for saturated secondary alcohols of acyclic and cyclic compounds): [drawing 7]
Cofactor regeneration: A prerequisite for the production of α-hydroxycarbonyl compounds is the regeneration of the expensive coenzymes and the stability of the protein catalysts. By coupling two coenzyme-dependent enzyme reactions, NADPH can be continuously regenerated. […]

In data set [4] the target is T2, Gox1615. Nature of the data set: Kinetic constants from purified enzyme by Lineweaver-Burk plots. The class given is biochemical. As for the experimental part:
(§2) Determination of pH and temperature optima and enzyme kinetics: The optimum pH for enzyme activities was determined by a modified method of Salusjärvi, T. et al., Appl. Microbiol. Biotechnol. 65:306-314 (2004) using the following buffer system (50 mM final concentration each): sodium acetate pH 4.5 - 6.5, potassium phosphate pH 6.5 - 8.0, Tris-HCl pH 8.0 - 10. Temperature optima for the biocatalysts were determined under standard reaction conditions at temperatures ranging from 20 - 80 °C. The Michaelis constant (Km) for the proteins was determined from purified enzyme by Lineweaver-Burk plots. Assays were performed at optimum pH for each enzyme and at 30 °C using the best substrate and a targeted substrate. The Km for each substrate was calculated using concentrations of 0.0025 to 10 mM, and the Km NAD(P)H and NAD(P) was calculated using concentrations of 0.01 to 0.5 mM
(§3) 2.9 Kinetic parameters of the keto carbonyl reductases: Kinetic constants were determined from purified enzyme by Lineweaver-Burk plots. The Km and Vmax values for the substrates were calculated using concentrations of 0.025 to 10 mM. The optimal pH values and temperatures for enzyme activities are also shown in Tab. 8. Table 8: Summary of kinetic parameters

In data set [5] the target is T1, Gox0644. The description is as above. The class given is biochemical. As for the experimental part:
as §2, §3

A further data set relates to CCC(=O)C(C)=O. The description is as above. The class given is biochemical, Gluconobacter oxydans. The settings on record: other: 40 mM KPB at optimal pH and 30 °C, substrate 0.025 to 10 mM. As for the experimental part:
as §2, §3

The test system of a further data set is O=CC(=O)c1ccccc1. The description is as above. The class given is biochemical, Gluconobacter oxydans. The settings on record: other: 40 mM KPB at optimal pH and 30 °C, substrate 0.025 to 10 mM. As for the experimental part:
as §2, §3

Substrate in data set [6]: CC(=O)C=O
Described as above. It counts as biochemical, Gluconobacter oxydans. The settings on record: other: 40 mM KPB at optimal pH and 30 °C, substrate 0.025 to 10 mM. As for the experimental part:
as §2, §3

Substrate in data set [7]: CCC(=O)C(C)=O
The description is as above. It counts as biochemical, Gluconobacter oxydans. Conditions: other: 40 mM KPB at optimal pH and 30 °C, substrate 0.025 to 10 mM. As for the experimental part: as §2, §3
The source holds these as a separate data set.

Substrate in data set [8]: CCCC(=O)C(C)=O
The description is as above. It counts as biochemical, Gluconobacter oxydans. Conditions: other: 40 mM KPB at optimal pH and 30 °C, substrate 0.025 to 10 mM. As for the experimental part: as §2, §3

Substrate in data set [9]: O=CC(=O)c1ccccc1
Described as above. It counts as biochemical, Gluconobacter oxydans. The settings on record: other: 40 mM KPB at optimal pH and 30 °C, substrate 0.025 to 10 mM. As for the experimental part: as §2, §3
This is another data set of the same source.

In the case of `CC(=O)C(=O)c1ccccc1` [1-phenyl-1,2-propanedione], at Gox0644 [1], the “Gox0644 U/mg*” value came out at 75.4 U/mg. On Gox0644 [1] (substrates showing the highest activities), the activity turned out to be 75 U/mg protein. Also, at Gox1615 [2], the “Gox1615 U/mg*” value came out at 5.4 U/mg and the “Specific Activity (U/mg)*” value was found to be 5.4 U/mg. Moreover, on Gox0644 [3] (NMR with chiral solvent BMBA-p-Me), the “Product (stereoselective reduction)” value is 1-phenyl-2R-hydroxy-propanone. Further, the “Product (regioselective reduction)” value at Gox0644 [3] (determined by NMR analysis) is 1-phenyl-2-hydroxy-propanone and 1-phenyl-2-hydroxy-1-propanone.
With `CC(=O)C=O` [methylglyoxal], at Gox0644 [1], the “Gox0644 U/mg*” value amounted to 3.4 U/mg. For the same molecule, at Gox1615 [2], the “Gox1615 U/mg*” value amounted to 23.0 U/mg and the “Specific Activity (U/mg)*” value turned out to be 23.0 U/mg. Further, on Gox1615 [4], the Vmax amounted to 23 U/mg protein.
Consider `O=CC(=O)c1ccccc1` [phenylglyoxal], for which the “Gox0644 U/mg*” value at Gox0644 [1] was 74.7 U/mg. Moreover, at Gox1615 [2], the “Gox1615 U/mg*” value worked out at 19.1 U/mg and the “Specific Activity (U/mg)*” value is 19.1 U/mg. Further, on Gox0644 [5], the Vmax is 75 U/mg protein.
By Km is commonly meant the concentration of substrate that gives half-maximal velocity. Regarding Gox0644 (Gluconobacter oxydans 621H), in the data set with CCC(=O)C(C)=O, the Km amounted to 5.7 mM and the Vmax is listed as 69.6 µmol/min x mg. In the data set with O=CC(=O)c1ccccc1, the Km is 4.8 mM and the Vmax is 74.7 µmol/min x mg.

B1: Gox1615 (Gluconobacter oxydans 621H) (protein)
chain: MASDTIRIPGIDTPLSRVALGTWAIGGWMWGGPDDDNGVRTIHAALDEGINLIDTAPVYGFGHSEEIVGRALAEKPNKAHVATKLGLHWVGEDEKNMKVFRDSRPARIRKEVEDSLRRLRVETIDLEQIHWPDDKTPIDESARELQKLHQDGKIRALGVSNFSPEQMDIFREVAPLATIQPPLNLFERTIEKDILPYAEKHNAVVLAYGALCRGLLTGKMNRDTTFPKDDLRSNDPKFQKPNFEKYLAAMDEFEKLAEKRGKSVMAFAVRWVLDQGPVIALWGARKPGQVSGVKDVFGWSLTDEEKKAVDDILARHVPNPIDPTFMAPPARD
As to B1, the Km in [6] stood at 4.3 mM; in [7] it was 4.0 mM; in data set [8], 4.0 mM; in data set [9] it was 4.3 mM. In addition, the Vmax in data set [6] is 23.0 µmol/min x mg; in data set [7], 7.0 µmol/min x mg; in data set [8] it was 7.0 U/mg protein; in data set [9] it was 23 U/mg protein.
